Consider two compounds from US9238632B2, “3-cyanoanilinoalkylarylpiperazine derivative and use thereof in preparing drugs” (NHWA Pharma. Corporation, priority 2012, dated 2016).

In series [1] the target is T1, 5-HT1A receptor (Rattus norvegicus, UniProt P19327).
T1 construct: The supernatant is discarded and the precipitate (membrane receptor) is stocked; from tissue; host or cells: SD rat cerebral cortex membranes
T1 sequence (P19327 1-422): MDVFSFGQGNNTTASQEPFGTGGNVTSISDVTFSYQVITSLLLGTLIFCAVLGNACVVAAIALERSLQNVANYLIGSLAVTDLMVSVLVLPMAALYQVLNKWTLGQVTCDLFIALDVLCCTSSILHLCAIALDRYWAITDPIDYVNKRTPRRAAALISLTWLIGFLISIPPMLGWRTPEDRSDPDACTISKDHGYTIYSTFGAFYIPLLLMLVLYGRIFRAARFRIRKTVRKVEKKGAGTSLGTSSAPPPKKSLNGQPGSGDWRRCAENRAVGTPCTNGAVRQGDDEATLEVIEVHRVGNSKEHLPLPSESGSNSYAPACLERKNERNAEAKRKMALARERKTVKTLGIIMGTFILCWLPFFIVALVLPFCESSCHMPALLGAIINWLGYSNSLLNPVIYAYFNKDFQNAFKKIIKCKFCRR
Put plainly: In vitro competitive binding test to 5-HT1A receptor ([3H]-8-OH-DPAT, rat cerebral cortex membranes). The conditions noted are these: 10 μmol/L compound; hydrochloride salts; rat cerebral cortex membrane; unit (I %); read-out: 5-HT1A affinity [3H]-8-OH-DPAT (inhibition rate of radioligand binding). As to the method: (§1) Animals: clean grade SD rats, female and male, 250-300 g, purchased from Nanjing QingLongshan animal breeding center.
(§2) Radioligand: [^3H]-8-OH-DPAT, [^3H]-Ketanserin, purchased from PerkinElmer company; 5-HT and Methysergide, purchased from Sigma company.
Preparation of 5-HT1A buffer solution: Tris-HCl buffer solution (0.05M, 1000 ml) is added with certain amount of ascorbic acid, pargyline and CaCl2, to give final concentrations of 0.1%(ascorbic acid), 10 um (pargyline) and 4 mM (CaCl2) separately.
(§3) Preparation of radioligand: 50 μl mother liquor is diluted to 5 ml with anhydrous ethanol, and stocked for use.
(§4) Preparation of non-labeling ligand: appropriate amounts of 5-HT and Methysergide are dissolved in ultrapure water to give solutions with final concentrations of 2*10^−5M respectively.
(§5) Preparation of solutions of various test drugs: appropriate amount of each drug is first diluted to 1 ml with ultrapure water as stock solution. When needed, 10 μl of the stock solution is diluted to 1 ml to reach a level of 10^−5M.
(§6) Rats are decapitated to get the brains. The target tissues (left and right cerebral cortex) are separated on ice, added with 10-fold volume (V/W) of ice-cold buffer, and homogenized with tissue Homogenizer for several seconds 3 times to form tissue homogenate. The tissue homogenate is centrifuged with low temperature superb centrifuge (12000 r/min) 3 times, with each for 20 minutes. The supernatant is discarded and the precipitate (membrane receptor) is stocked in −80° C. ultralow temperature freezer.
(§7) The membrane receptor is added with certain volume of ice-cold buffer and homogenized to make membrane receptor solutions at certain concentrations.
(§8) Various reaction solutions are added in the following sequences and ratios:
(§9) Total binding tube: 100 μl membrane receptor+100 μl buffer+10 μl radioligand
(§10) Non-specific tube: 100 μl membrane receptor+100 μl non-labeling ligand+10 μl radioligand
(§11) Test compound tube: 100 μl membrane receptor+100 μl drug solution+10 μl radioligand
(§12) Above tubes are put in 37° C. water bath immediately after finishing adding radioligand into each of them and then incubated for 25 min. After 25 min, the tubes are put in ice water to quench the reaction. Each tube is poured into suction filtration device to filter, and the filter membrane is washed with 5-10 ml ice-cold buffer twice. The filter membrane is dried in 85° C. oven, and then put into test tubes, and added with certain amount of scintillation liquid to soak overnight. Radioactivity is determined using liquid scintillation counter.
(§13) Each compound is tested in duplicate, and the tests are carried out independently twice.

In series [2] the target is T2, 5-HT2A receptor (Rattus norvegicus, UniProt P14842).
T2 construct: The supernatant is discarded and the precipitate (membrane receptor) is stocked; from tissue; host or cells: SD rat cerebral cortex membranes
Put plainly: In vitro competitive binding test to 5-HT2A receptor ([3H]-Ketanserin, rat cerebral cortex membranes). Conditions: 10 μmol/L compound; hydrochloride salts; rat cerebral cortex membrane; unit (I %); read-out: 5-HT2A affinity [3H]-Ketanserin (inhibition rate of radioligand binding). The procedure:
as §1, §2
Preparation of 5-HT2A buffer solution: Tris (6.05 g) is dissolved in ultrapure water (1000 ml). PH is adjusted to 7.4 with HCl. Tris-HCl buffer solution (0.05M) is used.
as §3, §4, §5, §6, §7, §8, §9, §10, §11, §12, §13

The test system of series [3] is rat formalin induced pain model. Put plainly: Rat formalin induced pain model (leg-raising times). It counts as in vivo, SD rats. The conditions noted are these: formalin 1 h later, Mean ± SD, n=10. An excerpt: Rat formalin induced pain model is used to test in vivo analgesic effect of hydrochloride of compound III-10.
Rat formalin induced pain model is established by Dubuisson and Dennis in 1977. It can simulate some characteristics of human pains after damages, and its persistent tension pain is similar to common clinical chronic pains. Its experimental results have excellent repeatability, and it is considered to be universally accepted pain model which is more reliable than short-term mechanical or thermal stimulation models. It has been generally used in investigation and determination of pain mechanism, pain physiology and pharmacology, screening of the analgesic effects of drugs and evaluation of analgesic drugs.
Test compounds are prepared to relevant doses with 0.5% CMC-Na before use.
Formaldehyde solution: batch number HN20041109, HuaDong reagent industrial company. In experiment, it is diluted to 5% formaldehyde solution with 0.9% sodium chloride injection.
90 SD rats of weight (240-350 g), half female and half male, are fed for I week to adapt the environment, with 5 in each cage during feeding, the rats are fed under standard condition during experiments with free access to water and food.
90 SD rats of weight 240-350 g are randomly divided into 9 groups which are negative control group, model group, gabapentin group, high, median and low dosage group of each compound respectively, with 10 rats in each group, half female and half male. Relevant test compounds are given by intragastric administration, and 5% formalin (50 ul) is subcutaneously injected at the left rear foot in 1 h to model, formation of pichu indicates a successful modeling. 0.5% (weight percentage) CMC-Na is given by intragastric administration in negative control group, and normal saline (50 ul) is subcutaneously injected at the bottom of right rear foot in 1 h. After modeling, the leg-raising times in 1-2 minutes and 5-6 minutes are observed. The time period 10-60 minutes are divided into 5 minutes intervals, and the leg-raising times of the first minute of each interval (10-11, 15-16, 20-21, 25-26, 30-31, 35-36, 40-41, 45-46, 50-51, 55-56, 60-61) are observed.
Measuring index is expressed as mean±standard deviation (Mean±SD), comparison is analyzed with One-way ANOVA.

Series [4] can be described thus: Acute toxicity study, single drench to mice (LD50, Bliss method). The conditions noted are these: mouse, in vivo, oral, hydrochloride. The text has this: Bliss method is used for statistics.
Series [5] has as its system Salmonella typhimurium histidine auxotrophic mutants TA97, TA98, TA100 and TA102. As to the kind of experiment: Bacterial reverse mutation test (Ames test). The conditions noted are these: −S9 and +S9, all dosages. As to the method: Strains: Salmonella typhimurium histidine auxotrophic mutants TA97, TA98, TA100 and TA102.
Results: the experiments include two parts of −S9 and +S9. In the test system without S9, TA98 5000 μg/dish has antibacterial activity, and in the test system with S9, TA97 5000 μg/dish has antibacterial activity. Other dosages have no antibacterial activity to any of the strains, and the growth background is excellent. […] Ames test is negative.

The target of series [6] is hSERT (Homo sapiens, UniProt P31645). As to the kind of experiment: In vitro inhibition of serotonin reuptake ([3H]-5-HT) in cells stably expressing hSERT. The conditions noted are these: for inhibition at 10 µM: read-out: Inhibition rates of SERT reuptake [3H]-5-HT.
hSERT, sequence (P31645 whole entry): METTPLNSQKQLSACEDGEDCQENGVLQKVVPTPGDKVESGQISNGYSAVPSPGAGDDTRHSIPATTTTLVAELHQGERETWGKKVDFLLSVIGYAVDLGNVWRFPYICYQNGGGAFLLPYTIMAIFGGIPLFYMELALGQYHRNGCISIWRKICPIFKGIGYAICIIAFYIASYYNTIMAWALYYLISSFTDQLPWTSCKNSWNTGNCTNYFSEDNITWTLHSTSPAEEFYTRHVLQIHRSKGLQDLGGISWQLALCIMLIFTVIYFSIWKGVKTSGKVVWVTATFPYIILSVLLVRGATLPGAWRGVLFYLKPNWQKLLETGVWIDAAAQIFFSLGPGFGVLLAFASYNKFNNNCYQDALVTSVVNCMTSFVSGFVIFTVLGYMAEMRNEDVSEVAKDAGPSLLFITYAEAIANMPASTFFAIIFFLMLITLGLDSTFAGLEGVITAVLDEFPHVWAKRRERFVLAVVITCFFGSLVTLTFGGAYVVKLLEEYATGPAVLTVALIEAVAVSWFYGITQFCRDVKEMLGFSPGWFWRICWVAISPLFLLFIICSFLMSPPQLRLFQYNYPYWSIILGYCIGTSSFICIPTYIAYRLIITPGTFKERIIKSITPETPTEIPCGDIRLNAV
Protocol: Positive control compound: fluoxetine.
Sample treatment: about 1 mg of compound is weighted and added with relative amount of DMSO to prepare 10^−2M stock solution. Before use, the stock solution is diluted with HBSS buffer to relative concentrations. Each sample is dissolved in DMSO completely. The dilution is clear and without obvious cloudy and formation of precipitate after adding with buffer.
(1) Cells which can stably express hSERT are seeded into 24-well plates respectively.
(2) Experiments are started when the cell confluence reaches 80-90%.
(3) Liquids in the plates are discarded, the plates are washed with PBS twice at room temperature.
(5) Plates are incubated at 37° C. for 10 min after slight oscillation.
(6) Then 20 μl radioisotope is added (cpm: about 20000).
(7) Plates are incubated at 37° C. for 5 min after slight oscillation.
(8) Liquids in the plates are discarded, the plates are washed with ice-cold PBS twice, all the liquids in the plates are removed away.
(9) NaOH (2M, 100 μl) is added into each well to lyse the cells. All the lysates are combined and put on GF/C glass fiber filter paper.
(10) The filter papers are dried and put in 0.5 ml centrifuge tube, 500 μl lipid soluble scintillation liquid are added. Radioactivity is determined by MicroBeta liquid scintillation counter. Each concentration is tested intriplicate, and tests are carried out independently twice.
Test concentration is 10 μmol/L. The positive drug provided is set as control (10 μmol/L) in each experiment. The experimental processes are the same as the above process.

T2 sequence (P14842 whole entry): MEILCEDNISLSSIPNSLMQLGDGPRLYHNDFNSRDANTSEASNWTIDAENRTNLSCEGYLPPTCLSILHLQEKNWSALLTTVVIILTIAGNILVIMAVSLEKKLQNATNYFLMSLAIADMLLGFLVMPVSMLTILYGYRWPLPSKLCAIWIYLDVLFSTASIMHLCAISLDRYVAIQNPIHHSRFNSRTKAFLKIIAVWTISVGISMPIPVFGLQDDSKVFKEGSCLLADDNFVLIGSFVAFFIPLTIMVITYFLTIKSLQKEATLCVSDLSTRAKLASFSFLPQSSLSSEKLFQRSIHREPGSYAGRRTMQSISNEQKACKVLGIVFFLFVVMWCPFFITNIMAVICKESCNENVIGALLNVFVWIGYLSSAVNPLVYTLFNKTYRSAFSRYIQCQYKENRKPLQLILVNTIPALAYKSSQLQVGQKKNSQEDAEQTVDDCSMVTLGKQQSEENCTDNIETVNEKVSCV

`CN(CCCN1CCN(c2cccc(Cl)c2)CC1)c1cccc(C#N)c1` [III-10, 3-((3-(4-(3-chlorophenyl)piperazin-1-yl)propyl)methylamino)benzonitrile]: the inhibition at 10 µM worked out at 109% in series [1], 145% in series [2] and 94.3% in series [6]. The entries for the “phase I times (leg-raising times)” value in series [3] (40 mg/kg intragastric) and in series [3] (160 mg/kg intragastric) were 21.23 ± 11.24 time and 21.90 ± 15.48 time, respectively. The compound further came in with an LD50 in series [4] of 1500 mg/kg. In addition, the “Ames test (colony reverse mutations)” value in series [5] is recorded as “negative”. For the same compound, the IC50 in series [6] came to 138 ± 35 nM. For the same compound, the “inhibition effect to 5-HT reuptake compared with fluoxetine” value in series [6] was “more potent than that of fluoxetine”.
Turning to `CN(CCCN1CCN(c2cccc(C(F)(F)F)c2)CC1)c1cccc(C#N)c1` [III-8, 3-(methyl(3-(4-(3-trifluoromethylphenyl)piperazin-1-yl)propyl)amino)benzonitrile], in series [1], the inhibition at 10 µM was determined as 108%. Moreover, the inhibition at 10 µM in series [2] is 111%. This compound also displayed an LD50 in series [4] of 1800 mg/kg. Besides, the “Ames test (colony reverse mutations)” value in series [5] is recorded as “negative”. Moreover, in series [6], the half-inhibitory concentration (IC50) was 246 ± 94 nM, the “inhibition effect to 5-HT reuptake compared with fluoxetine” value is “comparable to that of fluoxetine” and the inhibition at 10 µM stood at 98.3%.
